Patent publication US4902690A, “Pest controlling compositions” (The General Hospital Corporation, priority 1988, dated 1990)
Where “and” joins values, the source holds several entries; their conditions need not be identical. Identical values can stand only once. Like-named read-outs stand apart in the source and are kept apart here.

Legend:
[1] = test system: octopamine-sensitive adenylate cyclase (firefly lantern octopamine receptor); assay: Octopamine-sensitive adenylate cyclase activation, firefly light organ broken cell preparation; assay type: biochemical, firefly (Photinus pyralis)
[2] = test system: tobacco hornworms (Manducca sexta); assay: In vivo leaf test (feeding on sprayed tomato leaves); conditions: for effect of adding IBMX on antifeeding / pesticidal activity of the compound: IBMX 0.1%, FIGS. 9, 10, 17, Tables 4, 7, 8, FIG. 9 at 72 hours
Manducca eggs = assay: Ovacidal test (eggs dipped in drug solutions); assay type: in vivo, Manducca sexta
Procedure: In some cases, test agents were tested for ovacidal activity by dipping groups of 10-50 Manducca eggs in drug solutions for 60 seconds and then determining the percentage of eggs which produced viable larvae. A compound or synergist with active ovacidal activity was one which decreased the percentage of eggs hatched, relative to control.

[3] = Table 1, phenylethylamines, >1 = better than (±)-p-octopamine
[4] = Table 1, phenylethylamines, maximal activation as % of that by (±)-p-octopamine, N.A. = No Activity
[5] = agonist 1 gm/100 ml + PDE Inhibitor IBMX 0.1 g/100 ml
[6] = agonist 1 gm/100 ml, No PDE Inhibitor
[7] = agonist 10^-1 gm/100 ml + PDE Inhibitor IBMX 0.1 g/100 ml
[8] = agonist 10^-1 gm/100 ml, No PDE Inhibitor
[9] = agonist 10^-2 gm/100 ml + PDE Inhibitor IBMX 0.1 g/100 ml
[10] = agonist 10^-2 gm/100 ml, No PDE Inhibitor
[11] = agonist 10^-3 gm/100 ml + PDE Inhibitor IBMX 0.1 g/100 ml
[12] = agonist 10^-3 gm/100 ml, No PDE Inhibitor
[13] = Table 2, clonidines, N.A. = no activity
[14] = Table 2, inhibitory properties at the octopamine receptor
[15] = agonist 0.3 (3 × 10^-1) gm/100 ml + PDE Inhibitor IBMX 0.1 g/100 ml
[16] = agonist 0.3 (3 × 10^-1) gm/100 ml, No PDE Inhibitor

Compound: CN(C)CC(O)c1ccc(O)cc1 (racemic) [(±)-N,Ndimethyloctopamine]
- Ka^oct /Ka^B ratio [1, 3]: 0.9
- Vmax (% OCT) [1, 4]: 43 ± 4 % OCT

Compound: CNCC(O)c1ccc(O)cc1 (racemic) [(±)-Nmethyloctopamine]
- % Leaf Remaining [2, 5]: 90%
- % Leaf Remaining [2, 6]: 30%
- % Leaf Remaining [2, 7]: 55%
- % Leaf Remaining [2, 8]: < 5%
- % Leaf Remaining [2, 9]: 42%
- % Leaf Remaining [2, 10]: < 5%
- Ka^oct /Ka^B ratio [1, 3]: 1.8
- Vmax (% OCT) [1, 4]: 108 ± 10 % OCT

Compound: NCC(O)c1cccc(O)c1 (racemic) [(±)-m-octopamine]
- effect of adding IBMX on antifeeding / pesticidal activity of the compound [2]: failed to increase pesticidal activity
- Ka^oct /Ka^B ratio [1, 3]: 0.1
- Vmax (% OCT) [1, 4]: 9 ± 1 % OCT

Compound: COc1cc(C(O)CN)ccc1O (racemic) [(±)-normetanephrine]
- Ka^oct /Ka^B ratio [1, 3]: 0.07
- Vmax (% OCT) [1, 4]: 68 ± 2 % OCT

Compound: NCC(O)c1ccccc1O (racemic) [(±)-o-octopamine]
- Ka^oct /Ka^B ratio [1, 3]: 0.05
- Vmax (% OCT) [1, 4]: 23 ± 1 % OCT

Compound: CC(N)Cc1ccc(O)cc1 (racemic) [(±)-p-hydroxyamphetamine]
- Ka^oct /Ka^B ratio [1, 3]: < 0.05
- Vmax (% OCT) [1, 4]: 8 ± 3 % OCT

Compound: CC(N)C(O)c1ccc(O)cc1 (racemic) [(±)-α-methyloctopamine]
- Ka^oct /Ka^B ratio [1, 3]: 0.05
- Vmax (% OCT) [1, 4]: 44 ± 2 % OCT

Compound: CNC(C)C(O)c1ccc(O)cc1 (racemic) [(±)-α-methylsynephrine]
- Ka^oct /Ka^B ratio [1, 3]: < 0.01
- Vmax (% OCT) [1, 4]: 7 ± 2 % OCT

Compound: C[C@H](N)[C@H](O)c1ccccc1 (relative stereo) [(±)-norephedrine]
- Ka^oct /Ka^B ratio [1, 3]: < 0.09
- Vmax (% OCT) [1, 4]: 8 ± 1 % OCT

Compound: NCC(O)c1ccc(Cl)cc1Cl (stereo not shown) [2,4-dichlorophenylethanolamine]
- % Leaf Remaining [2, 5]: 80%
- % Leaf Remaining [2, 6]: 10%
- % Leaf Remaining [2, 7]: 50%
- % Leaf Remaining [2, 8]: < 5%
- % Leaf Remaining [2, 9]: 30%
- % Leaf Remaining [2, 10]: < 5%

Compound: CNC[C@H](O)c1ccc(O)c(O)c1 [(-)-epinephrine]
- Ka^oct /Ka^B ratio [1]: 0.20
- Vmax (% OCT) ([1]; light organ homogenate): 75 ± 2 % OCT

Compound: CC(C)NC[C@H](O)c1ccc(O)c(O)c1 [(-)-isoproterenol]
- Vmax (% OCT) [1, 4]: 19 ± 1 % OCT

Compound: NC[C@H](O)c1ccc(O)c(O)c1 [(-)-nonrepinephrine]
- Ka^oct /Ka^B ratio [1, 3]: 0.13
- Vmax (% OCT) [1, 4]: 72 ± 1 % OCT

Compound: NC[C@H](O)c1ccc(O)cc1 [(-)-p-octopamine]
- Vmax (% OCT) [1, 4]: 101 ± 2 % OCT

Compound: CNC[C@H](O)c1cccc(O)c1 [(-)-phenylephrine]
- Ka^oct /Ka^B ratio [1, 3]: < 0.2
- Vmax (% OCT) [1, 4]: 17 ± 1 % OCT

Compound: Cc1cc(Cl)ccc1N=CN(C)C [CDM, chlordimeform]
- % Living Larvae (Manducca eggs; agonist 1 gm/100 ml + IBMX 0.1 g/100 ml): 2%
- % Living Larvae (Manducca eggs; [6]): 2%
- % Living Larvae (Manducca eggs; agonist 10^-1 gm/100 ml + IBMX 0.1 g/100 ml): 10%
- % Living Larvae (Manducca eggs; [8]): 25%
- % Living Larvae (Manducca eggs; agonist 10^-2 gm/100 ml + IBMX 0.1 g/100 ml): 10%
- % Living Larvae (Manducca eggs; [10]): 60%
- % Leaf Remaining [2, 5]: 90%
- % Leaf Remaining [2, 6]: 90%
- % Leaf Remaining [2, 7]: 90%
- % Leaf Remaining [2, 8]: 70%
- % Leaf Remaining [2, 9]: 85%
- % Leaf Remaining [2, 10]: < 5%
- % Leaf Remaining [2, 11]: 65%
- % Leaf Remaining [2, 12]: < 5%
- % Leaf Remaining ([2]; agonist 10^-4 gm/100 ml + PDE Inhibitor IBMX 0.1 g/100 ml): 50%
- % Leaf Remaining ([2]; agonist 10^-4 gm/100 ml, No PDE Inhibitor): < 5%
- Ka ratio ([1]; FIG. 1, formamidines): 0.5
- Vmax ([1]; FIG. 1, formamidines, % of octopamine): about 10%

Compound: Clc1ccc(Cl)c(N=C2NCCN2)c1 [NC 2]
- Ka^oct /Ka^B ratio [1, 13]: 1.1
- Ki [1, 14]: 23 µM

Compound: Clc1cc(Cl)c(N=C2NCCN2)cc1Cl [NC 3]
- Ka^oct /Ka^B ratio [1, 13]: 2.8

Compound: Cc1cccc(C)c1N=C1NCCN1 [NC 4]
- Ka^oct /Ka^B ratio [1, 13]: 0.41

Compound: CCc1cccc(CC)c1N=C1NCCN1 [NC 5]
- effect of adding IBMX on antifeeding / pesticidal activity of the compound [2]: substantial increases in the potency
- % Leaf Remaining [2, 15]: 70%
- % Leaf Remaining [2, 16]: 40%
- % Leaf Remaining [2, 7]: 45%
- % Leaf Remaining [2, 8]: 30%
- % Leaf Remaining [2, 9]: 30%
- % Leaf Remaining [2, 10]: 15%
- % Leaf Remaining [2, 11]: 17%
- % Leaf Remaining [2, 12]: 10%
- Ka^oct /Ka^B ratio [1, 13]: 19.0 and ~20

Compound: Brc1cccc(Br)c1N=C1NCCN1 [NC 6]
- Ka^oct /Ka^B ratio [1, 13]: 2.1

Compound: Clc1ccc(N=C2NCCN2)c(Cl)c1 [NC 8]
- Ka^oct /Ka^B ratio [1, 13]: 3.7

Compound: Cc1ccc(N=C2NCCN2)c(C)c1 [NC 9]
- Ka^oct /Ka^B ratio [1, 13]: 5.1

Compound: c1ccc(N=C2NCCN2)cc1 [NC 10]
- antifeeding activity of the compound by itself ([2]; FIGS. 10, 13, 17, Table 8): inactive in vivo
- effect of adding IBMX on antifeeding / pesticidal activity of the compound [2]: not synergized by the PDE inhibitor
- % Leaf Remaining [2, 5]: 15%
- % Leaf Remaining [2, 6]: 5%
- % Leaf Remaining [2, 7]: 13%
- % Leaf Remaining [2, 8]: 5%
- % Leaf Remaining [2, 9]: 15%
- % Leaf Remaining [2, 10]: 5%
- % Leaf Remaining [2, 11]: 12%
- % Leaf Remaining [2, 12]: 5%
- Ki [1, 14]: 190 µM

Compound: Clc1cc(Cl)c(N=C2NCCN2)c(Cl)c1 [NC 11]
- Ka^oct /Ka^B ratio [1, 13]: 1.9

Compound: Brc1ccc(N=C2NCCN2)cc1 [NC 12]
- Ka^oct /Ka^B ratio [1, 13]: 3.0

Compound: Cc1cc(C)c(N=C2NCCN2)c(C)c1 [NC 13]
- Ka^oct /Ka^B ratio [1, 13]: 4.3

Compound: Nc1cc(Cl)c(N=C2NCCN2)c(Cl)c1 [NC 14]
- Ka^oct /Ka^B ratio [1, 13]: 0.7
- Ki [1, 14]: 440 µM

Compound: CN(C)c1cc(Cl)c(N=C2NCCN2)c(Cl)c1 [NC 15]
- Ka^oct /Ka^B ratio [1, 13]: 1.9

Compound: CN(CCCl)c1cc(Cl)c(N=C2NCCN2)c(Cl)c1 [NC 16]
- Ki [1]: 10 µM
- Ka^oct /Ka^B ratio [1, 13]: 4.8

Compound: CNCCc1ccc(O)c(O)c1 [Nmethyldopamine]
- Ka^oct /Ka^B ratio [1, 3]: 0.19
- Vmax (% OCT) [1, 4]: 11 ± 1 % OCT

Compound: Clc1cccc(Cl)c1N=C1NCCN1 [clonidine]
- effect of adding IBMX on antifeeding / pesticidal activity of the compound [2]: substantial increases in the potency
- % Leaf Remaining [2, 5]: 63%
- % Leaf Remaining [2, 6]: 65%
- % Leaf Remaining [2, 7]: 55%
- % Leaf Remaining [2, 8]: 20%
- % Leaf Remaining [2, 9]: 55%
- % Leaf Remaining [2, 10]: 5%
- Ka^oct /Ka^B ratio [1]: 0.95
- Ki [1]: 20 µM

Compound: NCCc1ccc(O)c(O)c1 [dopamine]
- Ka^oct /Ka^B ratio [1, 3]: 0.26
- Vmax (% OCT) [1, 4]: 4 ± 1 % OCT

Compound: NCC(O)c1ccc(O)c(Cl)c1 (stereo not shown) [m-chloro-octopamine]
- Ka^oct /Ka^B ratio [1, 3]: 0.28
- Vmax (% OCT) [1, 4]: 77 ± 1 % OCT

Compound: Nc1ncnc2c1nc(Sc1ccc(Cl)cc1)n2[C@@H]1O[C@@H]2COP(=O)(O)O[C@H]2[C@H]1O [p-Cl-phenylthio cyclic AMP, 8-p-chlorophenylthio-cyclic AMP]
- antifeeding activity in the absence of IBMX ([2]; concentration of 1%, FIGS. 18, 19): some antifeeding activity

Compound: NCC(O)c1ccc(F)cc1 (stereo not shown) [p-fluoro-phenylethanolamine]
- % Leaf Remaining [2, 15]: 95%
- % Leaf Remaining [2, 16]: 25%
- % Leaf Remaining [2, 7]: 98%
- % Leaf Remaining [2, 9]: 80%
- % Leaf Remaining [2, 11]: 50%
- % Leaf Remaining [2, 12]: < 5%

Compound: COc1ccc(CCN)cc1 [p-methoxphenylethylamine]
- Ka^oct /Ka^B ratio [1, 3]: 0.10
- Vmax (% OCT) [1, 4]: 6 ± 3 % OCT

Compound: NCCc1ccc(O)cc1 [tyramine]
- Ka^oct /Ka^B ratio [1, 3]: 0.15
- Vmax (% OCT) [1, 4]: 57 ± 1 % OCT

Compound: NCCc1ccccc1 [β-phenylethylamine]
- Ka^oct /Ka^B ratio [1, 3]: 0.03
- Vmax (% OCT) [1, 4]: 13 ± 2 % OCT
